Key:
barnyardgrass [1] = experiment: Test B pre-/postemergence herbicide test; type: in vivo, Echinochloa crus-galli
In short: (§1)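 Test chemicals in a non-phytotoxic solvent mixture with surfactant were applied preemergence to seeded species and postemergence to plants 2-18 cm tall (1- to 4-leaf stage); rice and barnyardgrass were also tested in a flooded paddy at the 2-leaf stage. Visual rating versus controls after 13-15 days in greenhouse, scale 0 (no effect) to 100 (complete control).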

Surinam grass = experiment: Test B pre-/postemergence herbicide test; type: in vivo, Urochloa decumbens
In short: (§2)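 Flooded paddy rice and barnyardgrass were treated at the 2-leaf stage; upland plantings received compound either on sown seed or on 1- to 4-leaf seedlings. All were kept 13–15 days in a greenhouse and scored visually, 0–100, relative to untreated plants.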

cocklebur = experiment: Test B pre-/postemergence herbicide test; type: in vivo, Xanthium strumarium
In short: as §1

large crabgrass = experiment: Test B pre-/postemergence herbicide test; type: in vivo, Digitaria sanguinalis
In short: as §2

giant foxtail = experiment: Test B pre-/postemergence herbicide test; type: in vivo, Setaria faberi
In short: as §2

lambsquarters = experiment: Test B pre-/postemergence herbicide test; type: in vivo, Chenopodium album
In short: as §2

morningglory = experiment: Test B pre-/postemergence herbicide test; type: in vivo, Ipomoea coccinea
In short: as §1

pigweed = experiment: Test B pre-/postemergence herbicide test; type: in vivo, Amaranthus retroflexus
In short: as §2

velvetleaf = experiment: Test B pre-/postemergence herbicide test; type: in vivo, Abutilon theophrasti
In short: as §2

blackgrass = experiment: Test B postemergence herbicide test; type: in vivo, Alopecurus myosuroides
In short: (§3)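 Paddy species grown to the 2-leaf stage under flooding; blackgrass sprayed postemergence at 2–18 cm (1- to 4-leaf stage). Plants kept in a greenhouse for 13 to 15 days, then visually rated against controls on 0 (no effect) to 100 (complete control).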

wheat = experiment: Test B postemergence herbicide test; type: in vivo, Triticum aestivum; set-up: key to Wheat plant response rating: 0 = no effect, 100 = complete control
In short: (§4)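 Postemergence plants were sprayed with formulated test chemicals at 2 to 18 cm height (1- to 4-leaf stage); paddy species were grown to the 2-leaf stage. After 13 to 15 days in a greenhouse, injury was rated visually against untreated controls on a 0–100 scale (0 = no effect, 100 = complete control).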

wild oat = experiment: Test B postemergence herbicide test; type: in vivo, Avena fatua
In short: as §4

rice = experiment: Test B flooded paddy test; type: in vivo, Oryza sativa; settings: 1000 g ai/ha, scale 0 to 100 (0 no effect, 100 complete control)
In short: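 After treating 2-leaf paddy plants or 2–18 cm postemergence plants (1 to 4 leaves) with formulated chemical, researchers kept them in a greenhouse for 13–15 days. Effects were judged visually versus controls: 0 indicates none, 100 total control.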

[2] = tested on: small flower umbrella sedge; experiment: Test B flooded paddy test; type: in vivo, Cyperus difformis; settings: 1000 g ai/ha, scale 0 to 100 (0 no effect, 100 complete control)
In short: as §3

barnyardgrass [3] = experiment: Test B flooded paddy test; type: in vivo, Echinochloa crus-galli; settings: 1000 g ai/ha, scale 0 to 100 (0 no effect, 100 complete control)
In short: as §3

[4] = 125 g ai/ha; 0 = no effect, 100 = complete control; preemergence
[5] = 500 g ai/ha; visual rating, 0 = no effect, 100 = complete control; preemergence
[6] = postemergence, 125 g ai/ha; visual rating, scale 0 (no effect) to 100 (complete control)
[7] = postemergence, 500 g ai/ha; scale 0 to 100, 0 is no effect, 100 is complete control
[8] = 125 g ai/ha; visual rating, scale 0 (no effect) to 100 (complete control); postemergence

SMILES: CCNC(=O)c1ccc(F)c(NC(=O)C2CC(C(C)(C)C)=NN2CC)c1 (racemic) [Compound 269]
- Barnyardgrass plant response rating (0 to 100 scale) (barnyardgrass [1]; [4]): 80
- Plant response rating, Barnyardgrass (barnyardgrass [1]; [5]): 100
- Barnyardgrass plant response rating (barnyardgrass [1]; [6]): 10
- Barnyardgrass plant response rating (barnyardgrass [1]; [7]): 30
- Surinam Grass plant response rating (0 to 100 scale) (Surinam grass; [4]): 50
- Plant response rating, Surinam Grass (Surinam grass; [5]): 100
- Surinam Grass plant response rating (Surinam grass; [6]): 10
- Surinam Grass plant response rating (Surinam grass; [7]): 20
- Cocklebur plant response rating (0 to 100 scale) (cocklebur; [4]): 20
- Plant response rating, Cocklebur (cocklebur; [5]): 70
- Cocklebur plant response rating (cocklebur; [6]): 20
- Cocklebur plant response rating (cocklebur; [7]): 50
- Crabgrass, Large plant response rating (0 to 100 scale) (large crabgrass; [4]): 100
- Plant response rating, Crabgrass, Large (large crabgrass; [5]): 100
- Crabgrass, Large plant response rating (large crabgrass; [6]): 10
- Crabgrass, Large plant response rating (large crabgrass; [7]): 20
- Foxtail, Giant plant response rating (0 to 100 scale) (giant foxtail; [4]): 80
- Plant response rating, Foxtail, Giant (giant foxtail; [5]): 100
- Foxtail, Giant plant response rating (giant foxtail; [6]): 30
- Foxtail, Giant plant response rating (giant foxtail; [7]): 30
- Lambsquarters plant response rating (0 to 100 scale) (lambsquarters; [4]): 100
- Plant response rating, Lambsquarters (lambsquarters; [5]): 100
- Lambsquarters plant response rating (lambsquarters; [6]): 50
- Lambsquarters plant response rating (lambsquarters; [7]): 70
- Morningglory plant response rating (0 to 100 scale) (morningglory; [4]): 10
- Plant response rating, Morningglory (morningglory; [5]): 20
- Morningglory plant response rating (morningglory; [6]): 20
- Morningglory plant response rating (morningglory; [7]): 40
- Pigweed plant response rating (0 to 100 scale) (pigweed; [4]): 100
- Plant response rating, Pigweed (pigweed; [5]): 100
- Pigweed plant response rating (pigweed; [6]): 60
- Pigweed plant response rating (pigweed; [7]): 60
- Velvetleaf plant response rating (0 to 100 scale) (velvetleaf; [4]): 60
- Plant response rating, Velvetleaf (velvetleaf; [5]): 100
- Velvetleaf plant response rating (velvetleaf; [6]): 10
- Velvetleaf plant response rating (velvetleaf; [7]): 20
- Blackgrass plant response rating (blackgrass; [6]): 20
- Blackgrass plant response rating (blackgrass; [7]): 50
- Wheat plant response rating (wheat; [6]): 20
- Wheat plant response rating (wheat; [7]): 30
- Oat, Wild plant response rating (wild oat; [6]): 20
- Oat, Wild plant response rating (wild oat; [7]): 30
- Rice plant response rating (rice): 80
- Sedge, Umbrella plant response rating [2]: 80
- Barnyardgrass plant response rating (barnyardgrass [3]): 90

SMILES: CCN1N=C(C(C)(C)C)CC1C(=O)Nc1cc(C(=O)N2CC=CC2)ccc1F (racemic) [Compound 310]
- Barnyardgrass plant response rating (0 to 100 scale) (barnyardgrass [1]; [4]): 60
- Barnyardgrass plant response rating (barnyardgrass [1]; [8]): 0
- Plant response rating, Barnyardgrass (barnyardgrass [1]; [5]): 90
- Barnyardgrass plant response rating (barnyardgrass [1]; [7]): 20
- Surinam Grass plant response rating (0 to 100 scale) (Surinam grass; [4]): 30
- Surinam Grass plant response rating (Surinam grass; [8]): 10
- Plant response rating, Surinam Grass (Surinam grass; [5]): 70
- Surinam Grass plant response rating (Surinam grass; [7]): 20
- Cocklebur plant response rating (0 to 100 scale) (cocklebur; [4]): 10
- Cocklebur plant response rating (cocklebur; [8]): 0
- Plant response rating, Cocklebur (cocklebur; [5]): 50
- Cocklebur plant response rating (cocklebur; [7]): 20
- Crabgrass, Large plant response rating (0 to 100 scale) (large crabgrass; [4]): 90
- Crabgrass, Large plant response rating (large crabgrass; [8]): 10
- Plant response rating, Crabgrass, Large (large crabgrass; [5]): 100
- Crabgrass, Large plant response rating (large crabgrass; [7]): 30
- Foxtail, Giant plant response rating (0 to 100 scale) (giant foxtail; [4]): 50
- Foxtail, Giant plant response rating (giant foxtail; [8]): 10
- Plant response rating, Foxtail, Giant (giant foxtail; [5]): 100
- Foxtail, Giant plant response rating (giant foxtail; [7]): 40
- Lambsquarters plant response rating (0 to 100 scale) (lambsquarters; [4]): 100
- Lambsquarters plant response rating (lambsquarters; [8]): 60
- Plant response rating, Lambsquarters (lambsquarters; [5]): 100
- Lambsquarters plant response rating (lambsquarters; [7]): 80
- Morningglory plant response rating (0 to 100 scale) (morningglory; [4]): 0
- Morningglory plant response rating (morningglory; [8]): 0
- Plant response rating, Morningglory (morningglory; [5]): 10
- Morningglory plant response rating (morningglory; [7]): 50
- Pigweed plant response rating (0 to 100 scale) (pigweed; [4]): 80
- Pigweed plant response rating (pigweed; [8]): 50
- Plant response rating, Pigweed (pigweed; [5]): 100
- Pigweed plant response rating (pigweed; [7]): 70
- Velvetleaf plant response rating (velvetleaf; [8]): 20
- Plant response rating, Velvetleaf (velvetleaf; [5]): 100
- Velvetleaf plant response rating (velvetleaf; [7]): 50
- Blackgrass plant response rating (blackgrass; [8]): 10
- Blackgrass plant response rating (blackgrass; [7]): 30
- Wheat plant response rating (wheat; [8]): 10
- Wheat plant response rating (wheat; [7]): 20
- Oat, Wild plant response rating (wild oat; [8]): 30
- Oat, Wild plant response rating (wild oat; [7]): 40
- Rice plant response rating (rice): 80
- Sedge, Umbrella plant response rating [2]: 80
- Barnyardgrass plant response rating (barnyardgrass [3]): 90
